Values of other authors in patent US5627200A, “β3 -Adrenoceptor agonists and antagonists for the treatment of intestinal motility disorders, depression, prostate disease and dyslipidemia” (Pfizer Inc, priority 1994, dated 1997).

What was measured:
[1] = test system: genetic animal models of obesity and diabetes
[2] = test system: rodent models of depression; conditions: reported in Europ. J. Pharm., 219, 193 (1992)

Compound | plasma fatty acids [1] | plasma triglycerides [1] | activity in rodent models of depression [2]
COC(=O)COc1ccc(CC(C)NCC(O)c2cccc(Cl)c2)cc1 (stereo not drawn) [N-[2-(4-carbomethoxymethoxyphenyl)-1-methylethyl]-2-hydroxy-2-(3-chlorophenyl)ethanamine] | reduces | reduces | –
CCOC(=O)COc1ccc2c(c1)C[C@@H](NC[C@H](O)c1cccc(Cl)c1)CC2.Cl [N-[(2S)-7-carbethoxymethoxy-1,2,3,4-tetrahydronaphth-2-yl]-(2R)-2-hydroxy-2-(3-chlorophenyl)-ethanamine hydrochloride] | – | – | demonstrate activity in rodent models of depression
